Each block holds one compound with its values, some of them ahead of it.
Legend:
[1] = Population PK analysis of oral semaglutide in PIONEER 1, 2, 3, 5, 8 and 9; type: in vivo, human
[2] = SUSTAIN-6, T2D population with high CV risk; cited from earlier work
[3] = stated in discussion, no reference given; cited from earlier work

exposure compared to subjects not reporting GI disease ([1]; 174 subjects with chronic gastritis): No effect differences
fraction of subjects with exposure levels considered below the therapeutic range ([1]; oral semaglutide 14 mg): 3%
Compound: CC[C@H](C)[C@H](NC(=O)[C@H](Cc1ccccc1)NC(=O)[C@H](CCC(=O)O)NC(=O)[C@H](CCCCNC(=O)COCCOCCNC(=O)COCCOCCNC(=O)CC[C@H](NC(=O)CCCCCCCCCCCCCCCCC(=O)O)C(=O)O)NC(=O)[C@H](C)NC(=O)[C@H](C)NC(=O)[C@H](CCC(N)=O)NC(=O)CNC(=O)[C@H](CCC(=O)O)NC(=O)[C@H](CC(C)C)NC(=O)[C@H](Cc1ccc(O)cc1)NC(=O)[C@H](CO)NC(=O)[C@H](CO)NC(=O)[C@@H](NC(=O)[C@H](CC(=O)O)NC(=O)[C@H](CO)NC(=O)[C@@H](NC(=O)[C@H](Cc1ccccc1)NC(=O)[C@@H](NC(=O)CNC(=O)[C@H](CCC(=O)O)NC(=O)C(C)(C)NC(=O)[C@@H](N)Cc1cnc[nH]1)[C@@H](C)O)[C@@H](C)O)C(C)C)C(=O)N[C@@H](C)C(=O)N[C@@H](Cc1c[nH]c2ccccc12)C(=O)N[C@@H](CC(C)C)C(=O)N[C@H](C(=O)N[C@@H](CCCNC(=N)N)C(=O)NCC(=O)N[C@@H](CCCNC(=N)N)C(=O)NCC(=O)O)C(C)C [oral semaglutide, semaglutide]
lower exposure compared to subjects not reporting GI disease ([1]; 34 patients with gastric ulcer, non-significant): 11%

Compound: semaglutide [s.c. semaglutide]
reduction in the hazard ratio of major adverse cardiovascular events (MACE) [2]: 26%

Compound: semaglutide
half-life [3]: ~1 week
